The subject of this test is HCV pseudoparticles, genotype 1a HCV E1 and E2 envelope (H77C isolate). The test can be described thus: HCV pseudoparticle infection assay (luciferase reporter, Huh7 cells). The class given is cell-based, HCV genotype 1a (H77C). The conditions noted are these: Hepatitis C virus, Huh-7, 48 h.
Setting [1] is: read-out: EC50 (nM) 1a (H77C), HCV pseudoparticle entry into Huh7 cells, luciferase measured 2 days after infection, average of duplicates.
Setting [2] is: read-out: EC50 (nM) 1a (H77C), class symbol, HCV pseudoparticle entry into Huh7 cells, luciferase measured 2 days after infection.

The record followed here is patent publication US9624245B2, “Macrocyclic compounds as HCV entry inhibitors” (priority 2013, dated 2017).

Each structure is given as a SMILES string. Read-outs that look alike come from different tables or passages of the source.

Broadly, the EC50 is the midpoint of the concentration-response curve.

On to `CC1(C)CNC(=O)C(=O)Nc2ccc(cc2)OCCOc2ccc(cc2)CNc2nc(nc(OCC(F)(F)F)n2)Nc2ccc(cc2)C(=O)NC1` [Example 4003], for which the EC50 under setting [1] worked out at 23.6 nM and the EC50 under setting [2] was 10 to 1000 nM. `O=C1NCC2(CNCCCOc3ccc(cc3)CNc3nc(nc(OCC(F)(F)F)n3)Nc3ccc1cc3)COC2` [Example 6001]: under setting [2], the EC50 lay within 0.01 to 10 nM. Take `O=C1NCCCNCC2(COC2)COc2ccc(cc2)CNc2nc(nc(OCC(F)(F)F)n2)Nc2ccc1cc2` [Example 6003]: the concentration for a half-maximal effect (EC50) under setting [2] fell in the range of 0.01 to 10 nM. The same measure, in the same setting: the result for `C[C@H]1CNC2C3CN(CC32)C(=O)c2ccc(cc2)Nc2nc(nc(OCC(F)(F)F)n2)NCc2ccc(cc2)OC1` [Example 3001] reads 10 to 1000 nM. On the same count and under the same terms, the figure for `C=C1COc2ccc(cc2)CNc2nc(nc(OCC(F)(F)F)n2)Nc2ccc(cc2)C(=O)N2CCCN(CC2)C1` [Example 2002] is 10 to 1000 nM; for `CC1(C)CNC(=O)C(=O)Nc2ccc(cc2)OCCCCOc2ccc(cc2)CNc2nc(nc(OCC(F)(F)F)n2)Nc2ccc(cc2)C(=O)NC1` [Example 4001] it is 10 to 1000 nM. With `O=C1c2ccc(cc2)Nc2nc(nc(OCC(F)(F)F)n2)NCc2ccc(cc2)OCCCN2CCC3(CCN1C3)C2` (stereo not drawn) [Example 1001], the EC50 by setting is: under setting [1], 160 nM; under setting [2], 10 to 1000 nM. Regarding `CC1(C)CNC(=O)C(=O)Nc2ccc(cc2)OCCCOc2ccc(cc2)CNc2nc(nc(OCC(F)(F)F)n2)Nc2ccc(cc2)C(=O)NC1` [Example 4002], under setting [2], the EC50 was in the range of 0.01 to 10 nM. Turning to `CC1(C)CNCC2(COC2)COc2ccc(cc2)CNc2nc(nc(OCC(F)(F)F)n2)Nc2ccc(cc2)C(=O)NC1` [Example 5001], the EC50 by setting is: under setting [1], 0.796 nM; under setting [2], 0.01 to 10 nM. Consider `C=C1COc2ccc(cc2)CNc2nc(nc(OCC(F)(F)F)n2)Nc2ccc(cc2)C(=O)N2CC3(CN(C1)C3)C2` [Example 2003], for which the concentration for a half-maximal effect (EC50) under setting [1] amounted to 3.08 nM and the EC50 under setting [2] fell in the range of 0.01 to 10 nM. For `C[C@@H]1CNCC2(CNC(=O)c3ccc(cc3)Nc3nc(nc(OCC(F)(F)F)n3)NCc3ccc(cc3)OC1)COC2` [Example 6004], the EC50 under setting [2] was 10 to 1000 nM. For the molecule `O=C1c2ccc(cc2)Nc2nc(nc(OCC(F)(F)F)n2)NCc2ccc(cc2)OCCCN2CCCNCCCN1CCC2` [Example 1002], the EC50 runs as follows: under setting [1], 5.32 nM; under setting [2], 0.01 to 10 nM.

As to `CC1(C)CNC(=O)C(=O)Nc2ccc(cc2)OC/C=C/COc2ccc(cc2)CNc2nc(nc(OCC(F)(F)F)n2)Nc2ccc(cc2)C(=O)NC1` [Example 4004], the concentration giving a half-maximal response (EC50) under setting [2] lay within 10 to 1000 nM.

For `C=C1COc2ccc(cc2)CNc2nc(nc(OCC(F)(F)F)n2)Nc2ccc(cc2)C(=O)N2CC3CN(C1)CC3C2` [Example 2004], the EC50 under setting [2] is 10 to 1000 nM. On the same count and under the same terms, the result for `O=C1NCC2(CC2)CNCC2(COC2)COc2ccc(cc2)CNc2nc(nc(OCC(F)(F)F)n2)Nc2ccc1cc2` [Example 6005] reads 0.01 to 10 nM. Turning to `C[C@H]1CNCC2(CNC(=O)c3ccc(cc3)Nc3nc(nc(OCC(F)(F)F)n3)NCc3ccc(cc3)OC1)COC2` [Example 6002], the EC50 under setting [2] was in the range of 10 to 1000 nM. The same measure, in the same setting: the result for `CC1(C)CNC(=O)C(=O)Nc2ccc(cc2)OC/C=C\COc2ccc(cc2)CNc2nc(nc(OCC(F)(F)F)n2)Nc2ccc(cc2)C(=O)NC1` [Example 4005] reads 10 to 1000 nM. Take `C[C@@H]1COc2ccc(cc2)CNc2nc(nc(OCC(F)(F)F)n2)Nc2ccc(cc2)C(=O)N2CC3(C)CN(C1)CC(C)(C2)C3=O` [Example 3003]: the EC50 is, setting by setting: under setting [1], 34.3 nM; under setting [2], 10 to 1000 nM. Take `C=C1CNCC2CN(C2)C(=O)c2ccc(cc2)Nc2nc(nc(OCC(F)(F)F)n2)NCc2ccc(cc2)OC1` [Example 2001]: under setting [2], the EC50 was in the range of 0.01 to 10 nM.

On to `C[C@@H]1COc2ccc(cc2)CNc2nc(nc(OCC(F)(F)F)n2)Nc2ccc(cc2)C(=O)N2CC3CCN(CC3C2)C1` (stereo partly drawn) [Example 3002], for which the half-maximal effective concentration (EC50) was 116 nM under setting [1] and 10 to 1000 nM under setting [2].
